Data as given in US20020052295A1, “Diacyl derivatives of propylene diamine having herbicidal activity” (priority 1999, published 2002).

Key:
Conditions in all cases: lowest tested rate giving 80% or greater inhibition, approx. 14 days after planting and treating, greenhouse
DIGSA = experiment: Pre-emergence herbicidal activity on DIGSA (large crabgrass); assay type: in vivo, Digitaria sanguinalis
From the text: (§1) All such uses, and the biological activity enabling such uses, are embraced by the term “herbicidal” herein. Tables 15 and 16 summarize results of tests conducted as described below to determine the pre-emergence herbicidal activity, in the form of a GR80 value, of illustrative compounds of this invention. […] Where herbicidal activity was evident but 80% inhibition was not achieved at the highest rate tested (typically 1000 g/ha), an asterisk (*) is shown in the following tables. Herbicidal activity evident in the form of symptoms of phytotoxicity, in the absence of at least 80% inhibition at any rate, is indicated in the tables by “phyto”. A blank cell in the following tables indicates no herbicidal or phytotoxic response at any rate tested.
(§2) The pre-emergence tests were conducted by the following procedure. Topsoil was sieved to pass through a 1.27 cm screen. Fertilizer was added to the topsoil and the mixture was then sterilized by heating. The topsoil mixture was placed in a pot and compacted to a depth of 1.0 to 1.25 cm from the top of the pot. Seeds of each of several monocotyledonous and dicotyledonous annual plant species were placed on top of the soil. Additional soil was subsequently placed over the seeds to level-fill the pot. A known amount of each test compound dissolved or suspended in an appropriate organic solvent was diluted with a 50:50 mix of acetone and water and applied to the surface of the soil. After treatment the plants were placed in a greenhouse with a 30/21° C. day/night temperature regime where they received 0.64 cm of overhead irrigation. All subsequent watering consisted of a light overhead mist and/or subirrigation as needed for germination and growth.
(§3) Approximately 14 days after planting and treating, the plants were observed and herbicidal efficacy recorded as percent inhibition by comparison with untreated plants.
(§4) The plant species usually regarded as weeds which were utilized in the tests are identified in the tables below according to the following legend, in which “d” indicates a dicotyledonous species and “m” a monocotyledonous species. All monocotyledonous species included in the tests herein are grasses.

SOLNI = experiment: Pre-emergence herbicidal activity on SOLNI (black nightshade); assay type: in vivo, Solanum nigrum
From the text: as §1, §2, §3, §4

PANMI = experiment: Pre-emergence herbicidal activity on PANMI (wild proso millet); assay type: in vivo, Panicum miliaceum
From the text: as §1, §2, §3, §4

ABUTH = experiment: Pre-emergence herbicidal activity on ABUTH (velvetleaf); assay type: in vivo, Abutilon theophrasti
From the text: as §1, §2, §3, §4

POROL = experiment: Pre-emergence herbicidal activity on POROL (common purslane); assay type: in vivo, Portulaca oleracea
From the text: as §1, §2, §3, §4

SORVU = experiment: Pre-emergence herbicidal activity on SORVU (shattercane); assay type: in vivo, Sorghum vulgare
From the text: as §1, §2, §3, §4

SORHA = experiment: Pre-emergence herbicidal activity on SORHA (johnsongrass, seedling); assay type: in vivo, Sorghum halepense
From the text: as §1, §2, §3, §4

SETFA = experiment: Pre-emergence herbicidal activity on SETFA (giant foxtail); assay type: in vivo, Setaria faberi
From the text: as §1, §2, §3, §4

CHEAL = experiment: Pre-emergence herbicidal activity on CHEAL (common lambsquarters); assay type: in vivo, Chenopodium album
From the text: as §1, §2, §3, §4

PANDI = experiment: Pre-emergence herbicidal activity on PANDI (fall panicum); assay type: in vivo, Panicum dichotomiflorum
From the text: as §1, §2, §3, §4

CONAR = experiment: Pre-emergence herbicidal activity on CONAR (field bindweed); assay type: in vivo, Convolvulus arvensis
From the text: as §1, §2, §3, §4

AMARE = experiment: Pre-emergence herbicidal activity on AMARE (redroot pigweed); assay type: in vivo, Amaranthus retroflexus
From the text: as §1, §2, §3, §4

DATST = experiment: Pre-emergence herbicidal activity on DATST (jimsonweed); assay type: in vivo, Datura stramonium
From the text: as §1, §2, §3, §4

CIRAR = experiment: Pre-emergence herbicidal activity on CIRAR (canada thistle, seedling); assay type: in vivo, Cirsium arvense
From the text: as §1, §2, §3, §4

BRAPP = experiment: Pre-emergence herbicidal activity on BRAPP (broadleaf signalgrass); assay type: in vivo, Brachiaria platyphylla
From the text: as §1, §2, §3, §4

ECHCG = experiment: Pre-emergence herbicidal activity on ECHCG (barnyardgrass); assay type: in vivo, Echinochloa crus-galli
From the text: as §1, §2, §3, §4

Structure (SMILES)	Pre-emergence activity (GR80) on DIGSA (DIGSA)	Pre-emergence activity (GR80) on SOLNI (SOLNI)	Pre-emergence activity (GR80) on PANMI (PANMI)	Pre-emergence activity (GR80) on ABUTH (ABUTH)	Pre-emergence activity (GR80) on PORAL (POROL)	Pre-emergence activity (GR80) on SORVU (SORVU)	Pre-emergence activity (GR80) on SORHA (SORHA)	Pre-emergence activity (GR80) on SETFA (SETFA)	Pre-emergence activity (GR80) on CHEAL (CHEAL)	Pre-emergence activity (GR80) on PANDI (PANDI)	Pre-emergence activity (GR80) on CONAR (CONAR)	Pre-emergence activity (GR80) on AMARE (AMARE)	Pre-emergence activity (GR80) on DATST (DATST)	Pre-emergence activity (GR80) on CIRAR (CIRAR)	Pre-emergence activity (GR80) on BRAPP (BRAPP)	Pre-emergence activity (GR80) on ECHCG (ECHCG)
Cc1c(F)cccc1C(=O)NC(C)CNC(=O)c1cccc(C(F)(F)F)c1 (stereo not drawn) [Example 38]	125 g/ha	250 g/ha	250 g/ha	125 g/ha	32 g/ha	* (Where herbicidal activity was evident but 80% inhibition was not achieved at the highest rate tested (typically 1000 g/ha), an asterisk (*) is shown)	500 g/ha	250 g/ha	64 g/ha	250 g/ha	250 g/ha	32 g/ha	125 g/ha	125 g/ha	250 g/ha	1000 g/ha
Cc1cccc(C(=O)NC(C)CNC(=O)c2cccc(C(F)(F)F)c2)c1Br (stereo not drawn) [Example 66]	750 g/ha	750 g/ha	750 g/ha	250 g/ha	500 g/ha	–	* (Where herbicidal activity was evident but 80% inhibition was not achieved at the highest rate tested (typically 1000 g/ha), an asterisk (*) is shown)	500 g/ha	125 g/ha	500 g/ha	250 g/ha	250 g/ha	500 g/ha	500 g/ha	1000 g/ha	750 g/ha
Cc1ccccc1C(=O)NC(C)CNC(=O)c1cccc(C(F)(F)F)c1 (stereo not drawn) [Example 109]	250 g/ha	750 g/ha	1000 g/ha	phyto	750 g/ha	–	* (Where herbicidal activity was evident but 80% inhibition was not achieved at the highest rate tested (typically 1000 g/ha), an asterisk (*) is shown)	750 g/ha	750 g/ha	750 g/ha	phyto	250 g/ha	500 g/ha	750 g/ha	* (Where herbicidal activity was evident but 80% inhibition was not achieved at the highest rate tested (typically 1000 g/ha), an asterisk (*) is shown)	phyto
CC(CNC(=O)c1cccc(C(F)(F)F)c1)NC(=O)c1cccc(Br)c1F (stereo not drawn) [Example 56]	64 g/ha	64 g/ha	125 g/ha	500 g/ha	32 g/ha	–	750 g/ha	125 g/ha	32 g/ha	250 g/ha	* (Where herbicidal activity was evident but 80% inhibition was not achieved at the highest rate tested (typically 1000 g/ha), an asterisk (*) is shown)	64 g/ha	250 g/ha	32 g/ha	500 g/ha	750 g/ha
CC(CNC(=O)c1cccc(C(F)(F)F)c1)NC(=O)c1cccc(SC(F)(F)F)c1 (stereo not drawn) [Example 73]	phyto	1000 g/ha	phyto	phyto	750 g/ha	–	phyto	phyto	750 g/ha	* (Where herbicidal activity was evident but 80% inhibition was not achieved at the highest rate tested (typically 1000 g/ha), an asterisk (*) is shown)	phyto	250 g/ha	phyto	phyto	phyto	phyto
CC(CNC(=O)c1cccc(C(F)(F)F)c1)NC(=O)c1cccc(OC(F)(F)F)c1 (stereo not drawn) [Example 72]	250 g/ha	–	phyto	1000 g/ha	250 g/ha	phyto	* (Where herbicidal activity was evident but 80% inhibition was not achieved at the highest rate tested (typically 1000 g/ha), an asterisk (*) is shown)	500 g/ha	500 g/ha	500 g/ha	* (Where herbicidal activity was evident but 80% inhibition was not achieved at the highest rate tested (typically 1000 g/ha), an asterisk (*) is shown)	125 g/ha	1000 g/ha	500 g/ha	1000 g/ha	phyto
COc1c(F)cccc1C(=O)NC(C)CNC(=O)c1cccc(C(F)(F)F)c1 (stereo not drawn) [Example 40]	–	phyto	phyto	phyto	* (Where herbicidal activity was evident but 80% inhibition was not achieved at the highest rate tested (typically 1000 g/ha), an asterisk (*) is shown)	phyto	phyto	1000 g/ha	750 g/ha	750 g/ha	phyto	750 g/ha	1000 g/ha	–	* (Where herbicidal activity was evident but 80% inhibition was not achieved at the highest rate tested (typically 1000 g/ha), an asterisk (*) is shown)	phyto
Cc1c(Br)cccc1C(=O)NC(C)CNC(=O)c1cccc(C(F)(F)F)c1 (stereo not drawn) [Example 57]	500 g/ha	250 g/ha	750 g/ha	750 g/ha	125 g/ha	–	* (Where herbicidal activity was evident but 80% inhibition was not achieved at the highest rate tested (typically 1000 g/ha), an asterisk (*) is shown)	250 g/ha	32 g/ha	125 g/ha	250 g/ha	64 g/ha	125 g/ha	500 g/ha	750 g/ha	* (Where herbicidal activity was evident but 80% inhibition was not achieved at the highest rate tested (typically 1000 g/ha), an asterisk (*) is shown)
